Where two headings read alike, the source gives them in different places.
Tests used:
β-alanine aminopeptidase [1] = settings: Acinetobacter baumannii; 2 strains tested; read after 22 to 24 hours
β-alanine aminopeptidase [2] = settings: Vibrio vulnificus; 1 strain tested; read after 22 to 24 hours
β-alanine aminopeptidase [3] = settings: Sphingomonas paucimobilis; 2 strains tested; read after 22 to 24 hours
β-alanine aminopeptidase [4] = format: cell-based; settings: Ochrobactrum anthropi; 1 strain tested; read after 22 to 24 hours
β-alanine aminopeptidase [5] = settings: Pseudomonas putida; 1 strain tested; read after 22 to 24 hours
β-alanine aminopeptidase [6] = settings: Brevundimonas diminuta; 2 strains tested; read after 22 to 24 hours
β-alanine aminopeptidase [7] = settings: Pseudomonas fluorescens; 2 strains tested; read after 22 to 24 hours
β-alanine aminopeptidase [8] = settings: Citrobacter koseri; 1 strain tested; read after 22 to 24 hours
β-alanine aminopeptidase [9] = settings: Proteus vulgaris; 1 strain tested; read after 22 to 24 hours
β-alanine aminopeptidase [10] = settings: Shewanella putrefaciens; 1 strain tested; read after 22 to 24 hours
β-alanine aminopeptidase [11] = settings: Moraxella non liquefaciens; 2 strains tested; read after 22 to 24 hours
β-alanine aminopeptidase [12] = assay: APIZYM-type test strips with β-alanyl-β-naphthylamide; format: cell-based; settings: Enterobacter cloacae; five strains
β-alanine aminopeptidase [13] = assay: as above; format: cell-based; settings: Moraxella lac. sp. liquefaciens; 7 strains
β-alanine aminopeptidase [14] = assay: as above; format: cell-based; settings: Escherichia coli; five strains
β-alanine aminopeptidase [15] = assay: as above; format: cell-based; settings: Shewanella putrefaciens; five strains
β-alanine aminopeptidase [16] = assay: as above; format: cell-based; settings: Myroïdes spp.; five strains
β-alanine aminopeptidase [17] = assay: as above; format: cell-based; settings: Salmonella typhi; five strains
β-alanine aminopeptidase [18] = assay: as above; format: cell-based; settings: Sphingobacterium multivorum; five strains
β-alanine aminopeptidase [19] = assay: as above; format: cell-based; settings: Proteus vulgaris; five strains
β-alanine aminopeptidase [20] = format: cell-based; settings: Yersinia pseudotuberculosis; five strains
β-alanine aminopeptidase [21] = assay: APIZYM-type test strips with β-alanyl-β-naphthylamide; format: cell-based; settings: Shigella spp.; 4 strains
β-alanine aminopeptidase [22] = assay: as above; format: cell-based; settings: Burkholderia cepacia; five strains
β-alanine aminopeptidase [23] = assay: as above; format: cell-based; settings: Chryseobacterium indologenes; five strains
β-alanine aminopeptidase [24] = assay: as above; format: cell-based; settings: Pasteurella multocida; five strains
β-alanine aminopeptidase [25] = assay: as above; format: cell-based; settings: Pseudomonas oryzihabitans; five strains
β-alanine aminopeptidase [26] = assay: as above; format: cell-based; settings: Ochrobactrum anthropi; five strains
β-alanine aminopeptidase [27] = assay: as above; format: cell-based; settings: Moraxella paraphenylpyruvica; 3 strains
β-alanine aminopeptidase [28] = format: cell-based; settings: out of the seventy nine (79) tested
β-alanine aminopeptidase [29] = assay: APIZYM-type test strips with β-alanyl-β-naphthylamide; format: cell-based; settings: Serratia liquefaciens; five strains
β-alanine aminopeptidase [30] = assay: as above; format: cell-based; settings: Proteus morganii; five strains
β-alanine aminopeptidase [31] = assay: as above; format: cell-based; settings: Moraxella lacunata; 4 strains
β-alanine aminopeptidase [32] = assay: as above; format: cell-based; settings: Empedobacter brevis; 3 strains
β-alanine aminopeptidase [33] = assay: as above; format: cell-based; settings: Psychrobacter phenylpyruvicus; 4 strains
β-alanine aminopeptidase [34] = assay: as above; format: cell-based; settings: Pseudomonas fluorescens; five strains
β-alanine aminopeptidase [35] = assay: as above; format: cell-based; settings: Enterobacter gergoviae; five strains
β-alanine aminopeptidase [36] = assay: as above; format: cell-based; settings: Salmonella arizonae; five strains
β-alanine aminopeptidase [37] = assay: as above; format: cell-based; settings: Comamonas testosteroni; five strains
β-alanine aminopeptidase [38] = assay: as above; format: cell-based; settings: Enterobacter aerogenes; five strains
β-alanine aminopeptidase [39] = assay: as above; format: cell-based; settings: Achromobacter xylosoxidans, spp. xylosoxidans; five strains

NCCC(=O)c1c(N)cc(Cl)c(O)c1Cl
Number of negative results (β-alanine aminopeptidase [1]): 2
Number positive results (β-alanine aminopeptidase [1]): 0
Number of negative results (β-alanine aminopeptidase [2]): 1
Number positive results (β-alanine aminopeptidase [2]): 0
Number of negative results (β-alanine aminopeptidase [3]): 2
Number positive results (β-alanine aminopeptidase [3]): 0
Number of negative results (β-alanine aminopeptidase [4]): 0
Number positive results (β-alanine aminopeptidase [4]): 1
Number of negative results (β-alanine aminopeptidase [5]): 1
Number positive results (β-alanine aminopeptidase [5]): 0
Number of negative results (β-alanine aminopeptidase [6]): 2
Number positive results (β-alanine aminopeptidase [6]): 0
Number of negative results (β-alanine aminopeptidase [7]): 1
Number positive results (β-alanine aminopeptidase [7]): 1
Number of negative results (β-alanine aminopeptidase [8]): 1
Number positive results (β-alanine aminopeptidase [8]): 0
Number of negative results (β-alanine aminopeptidase [9]): 1
Number positive results (β-alanine aminopeptidase [9]): 0
Number of negative results (β-alanine aminopeptidase [10]): 1
Number positive results (β-alanine aminopeptidase [10]): 0
Number of negative results (β-alanine aminopeptidase [11]): 2
Number positive results (β-alanine aminopeptidase [11]): 0

β-alanyl-β-naphthylamide
β-alanine aminopeptidase activity, result (β-alanine aminopeptidase [12]): negative
β-alanine aminopeptidase activity, result (β-alanine aminopeptidase [13]): negative
β-alanine aminopeptidase activity, result (β-alanine aminopeptidase [14]): negative
β-alanine aminopeptidase activity, result (β-alanine aminopeptidase [15]): negative
β-alanine aminopeptidase activity, result (β-alanine aminopeptidase [16]): negative
β-alanine aminopeptidase activity, result (β-alanine aminopeptidase [17]): negative
β-alanine aminopeptidase activity, result (β-alanine aminopeptidase [18]): negative
β-alanine aminopeptidase activity, result (β-alanine aminopeptidase [19]): negative
β-alanine aminopeptidase activity, result (β-alanine aminopeptidase [20]): negative
β-alanine aminopeptidase activity, result (β-alanine aminopeptidase [21]): negative
β-alanine aminopeptidase activity, result (β-alanine aminopeptidase [22]): positive
β-alanine aminopeptidase activity, result (β-alanine aminopeptidase [23]): negative
β-alanine aminopeptidase activity, result (β-alanine aminopeptidase [24]): negative
β-alanine aminopeptidase activity, result (β-alanine aminopeptidase [25]): negative
β-alanine aminopeptidase activity, result (β-alanine aminopeptidase [26]): positive
β-alanine aminopeptidase activity, result (β-alanine aminopeptidase [27]): negative
number of species found to possess β-alanine aminopeptidase activity (β-alanine aminopeptidase [28]): 6 species
β-alanine aminopeptidase activity, result (β-alanine aminopeptidase [29]): positive
β-alanine aminopeptidase activity, result (β-alanine aminopeptidase [30]): negative
β-alanine aminopeptidase activity, result (β-alanine aminopeptidase [31]): negative
β-alanine aminopeptidase activity, result (β-alanine aminopeptidase [32]): negative
β-alanine aminopeptidase activity, result (β-alanine aminopeptidase [33]): negative
β-alanine aminopeptidase activity, result (β-alanine aminopeptidase [34]): positive
β-alanine aminopeptidase activity, result (β-alanine aminopeptidase [35]): negative
β-alanine aminopeptidase activity, result (β-alanine aminopeptidase [36]): negative
β-alanine aminopeptidase activity, result (β-alanine aminopeptidase [37]): negative
β-alanine aminopeptidase activity, result (β-alanine aminopeptidase [38]): negative
β-alanine aminopeptidase activity, result (β-alanine aminopeptidase [39]): negative

— patent publication US6905841B2, “Enzymatic substrates for detecting Pseudomonas aeruginas” (Biomerieux S.A., priority 1999, dated 2005)
